Test results taken from the supplement of paper PMC4858399.

Experiments:
Details in all cases: exposure time 48 h
[1] = system: Caenorhabditis elegans N2; test: mean nematode size ln(EXT) after 48 h, plate-adjusted (DMSO control set to 6) (ln(EXT), control-adjusted); higher = larger nematodes / less growth inhibition
Outline: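 Worms were measured individually for extinction on the Biosort after 48 h at 20°C. They began as synchronised C. elegans N2 L1 larvae in K-medium with killed OP50, 1% DMSO and 0.5–200 µM chemical. Once debris had been removed by a growth model, values were natural-logged and averaged per well to give mean size. The plate adjustment subtracted the vehicle control mean and added 6.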

[2] = system: Caenorhabditis elegans N2; test: lowest effective concentration for larval growth inhibition (size below effect threshold); higher = less potent
Outline: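 Worm size was taken as per-worm extinction on the Biosort, log-transformed and turned into well means. The larvae (C. elegans N2, L1 stage, 50 per 96-well) had spent 48 h at 20°C in K-medium with killed bacteria, 1% DMSO and 0.5, 1, 5, 10, 50, 100 or 200 µM chemical. The lowest effective concentration marks the first dose where the plate-adjusted mean size drops under a cutoff and remains under it at every higher dose; the cutoff is 5.665.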

[3] = system: Caenorhabditis elegans N2; test: AC50 for larval growth inhibition (Hill fit); higher = less potent
Outline: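 Worms were synchronised C. elegans N2 L1 larvae, 50 per well of a 96-well plate, kept 48 h at 20°C in K-medium with killed OP50, 1% DMSO and 0.5–200 µM chemical. Size was taken as COPAS Biosort extinction, log-transformed and averaged per well, using only wells with at least 10 worms. AC50 was estimated by a constrained Hill fit with weighted genetic-algorithm regression; values outside the range are censored.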

SMILES | mean nematode size ln(EXT) (ln) ([1]; 0.5 µM) | mean nematode size ln(EXT) (ln) ([1]; 1 µM) | mean nematode size ln(EXT) (ln) ([1]; 5 µM) | mean nematode size ln(EXT) (ln) ([1]; 10 µM) | mean nematode size ln(EXT) (ln) ([1]; 50 µM) | mean nematode size ln(EXT) (ln) ([1]; 100 µM) | mean nematode size ln(EXT) (ln) ([1]; 200 µM) | lowest effective concentration [2] [µM] | AC50 for larval growth inhibition [3] [µM]
CCc1cc(SCc2sc(-c3ccc(C(F)(F)F)cc3)nc2CN2CCN(c3ccc(OC)cc3)CC2)ccc1OCC(=O)O | 6 | 5.67 | 5.57 | 4.69 | 4.47 | 4.29 | 3.99 | 5 | 9.23
CN1CCN(Cc2cc(-c3ccc4[nH]c(=O)oc4c3)co2)[C@@H](c2ccc(F)cc2)C1 | 5.7 | 5.65 | 5.75 | 5.61 | 5.3 | 4.92 | 3.58 | 10 | 114
COc1cccc(-c2ccc(/C=C\CN3CCCCCC3)cc2Cl)c1 | 5.88 | 5.69 | 5.61 | 5.5 | 4.98 | 4.39 |  | 5 | 90.6
NCc1cccc(C2CCN(C(=O)c3ccc(C#Cc4ccccc4F)o3)CC2)c1 | 5.96 | 5.71 | 5.61 | 5.42 | 4.45 | 3.28 |  | 5 | 31.6
CC1(C)CC(N=C=O)CC(C)(CN=C=O)C1 (mixture of isomers) [Isophorone diisocyanate, mixture of isomers] | 5.94 | 5.89 | 5.97 | 5.71 | 5.76 | 5.37 | 4.55 | 100 | > 200
CCCCC(CC)CN1C(=O)C2C3C=CC(C3)C2C1=O (mixture of isomers) [MGK] | 5.99 | 5.99 | 5.97 | 5.98 | 5.81 | 5.84 | 4.3 | 200 | 185
Cc1c(COC(=O)[C@@H]2[C@H](/C=C(\Cl)C(F)(F)F)C2(C)C)cccc1-c1ccccc1 (racemic) [Bifenthrin] | 5.92 | 5.85 | 5.84 | 5.96 | 5.9 | 5.78 | 5.37 | 200 | > 200
CC(C)(C)[C@H](O)[C@H](Cc1ccc(Cl)cc1)n1cncn1 (racemic) [Paclobutrazol] | 5.57 | 5.77 | 5.8 | 5.97 | 5.33 | 5.58 | 4.63 | 50 | > 200
Cc1c(F)c(F)c(COC(=O)[C@@H]2[C@H](/C=C(\Cl)C(F)(F)F)C2(C)C)c(F)c1F (racemic) [Tefluthrin] | 5.7 | 5.77 | 5.71 | 5.79 | 5.39 | 5.29 | 5.13 | 50 | > 200
ClC1=C(Cl)[C@]2(Cl)[C@@H]3[C@@H](Cl)[C@H]4O[C@H]4[C@@H]3[C@@]1(Cl)C2(Cl)Cl (single isomer, unassigned; isomer b) [Heptachlor epoxide, isomer B] | 5.72 | 5.69 | 5.48 | 5.44 | 5.2 | 5.14 | 5.11 | 5 | 7.71
OCCC(F)(F)C(F)(F)C(F)(F)C(F)(F)C(F)(F)C(F)(F)C(F)(F)C(F)(F)F [1,1,2,2-Tetrahydroperfluoro-1-decanol] | 5.86 | 5.67 | 5.72 | 5.62 | 5.54 | 5.37 | 4.6 | 10 | > 200
Clc1cccc(Cl)c1Cl [1,2,3-Trichlorobenzene] | 6.08 | 6.04 | 6.06 | 6.07 | 6.02 | 5.98 | 3.55 | 200 | 122
Clc1cc(Cl)c(Cl)cc1Cl [1,2,4,5-Tetrachlorobenzene] | 5.97 | 5.98 | 6.07 | 6.11 | 5.34 | 4.83 | 3.82 | 50 | 110
Clc1ccc(Cl)c(Cl)c1 [1,2,4-Trichlorobenzene] | 5.82 | 5.79 | 5.69 | 5.76 | 5.66 | 5.84 | 4.27 | 200 | 186
O=Cc1ccccc1C=O [1,2-Benzenedicarboxaldehyde] | 5.83 | 5.92 | 5.82 | 5.93 | 5.24 | 4.04 | 3.73 | 50 | 62
O=c1[nH]sc2ccccc12 [1,2-Benzisothiazolin-3-one] | 5.72 | 5.71 | 5.73 | 5.74 | 5.69 | 5.5 | 5.48 | 100 | > 200
O=[N+]([O-])c1ccc(Cl)c(Cl)c1 [1,2-Dichloro-4-nitrobenzene] | 5.95 | 5.94 | 5.93 | 5.99 | 5.79 | 5.66 | 5.54 | 100 | 111
c1ccc(NNc2ccccc2)cc1 [1,2-Diphenylhydrazine] | 5.81 | 5.72 | 5.71 | 5.69 | 5.22 | 4.11 | 3.42 | 50 | 78.8

SMILES | mean nematode size ln(EXT) (ln) ([1]; 0.5 µM) | mean nematode size ln(EXT) (ln) ([1]; 1 µM) | mean nematode size ln(EXT) (ln) ([1]; 5 µM) | mean nematode size ln(EXT) (ln) ([1]; 10 µM) | mean nematode size ln(EXT) (ln) ([1]; 50 µM) | mean nematode size ln(EXT) (ln) ([1]; 100 µM) | mean nematode size ln(EXT) (ln) ([1]; 200 µM) | lowest effective concentration [2] [µM] | AC50 for larval growth inhibition [3] [µM]
Nc1ccccc1N [1,2-Phenylenediamine] | 5.84 | 5.95 | 5.92 | 5.74 | 5.66 | 5.46 | 5.19 | 50 | > 200
CC1(C)C(=O)N(Br)C(=O)N1Br [1,3-Dibromo-5,5-dimethylhydantoin] | 5.7 | 5.78 | 5.81 | 5.86 | 5.87 | 5.87 | 5.61 | 200 | > 200
CC(C)c1cccc(C(C)C)c1 [1,3-Diisopropylbenzene] | 6.02 | 5.98 | 5.99 | 6.07 | 6.21 | 6.12 | 5.46 | 200 | 175
NC(=Nc1ccccc1)Nc1ccccc1 [1,3-Diphenylguanidine] | 5.67 | 5.74 | 5.62 | 5.6 | 5.63 | 5.64 | 5.55 | 5 | 16.6
CC(C)(C)c1cc(O)c(C(C)(C)C)cc1O [1,4-Benzenediol, 2,5-bis(1,1-dimethylethyl)-] | 5.85 | 5.93 | 5.73 | 5.79 | 5.7 | 4.85 | 3.48 | 100 | 113
Clc1ccc(Cl)cc1 [1,4-Dichlorobenzene] | 5.89 | 5.93 | 5.94 | 5.84 | 5.84 | 5.73 | 5.58 | 200 | > 200
C1=CCCC=CCCC=CCC1 [1,5,9-Cyclododecatriene] | 5.89 | 5.9 | 5.9 | 5.83 | 5.92 | 5.86 | 5.34 | 200 | > 200
O=C(OCCCCCOC(=O)c1ccccc1)c1ccccc1 [1,5-Pentanediol,1,5-dibenzoate] | 5.88 | 5.89 | 5.84 | 5.85 | 5.86 | 5.98 | 5.48 | 200 | > 200
O=C=NCCCCCCN=C=O [1,6-Diisocyanatohexane] | 5.82 | 5.86 | 5.84 | 5.84 | 5.94 | 5.93 | 5.66 | 200 | > 200
CCCCCCCCCCO [1-Decanol (Decanol)] | 5.95 | 5.91 | 5.83 | 5.85 | 5.79 | 5.69 | 3.42 | 200 | 143
CCCCCCCCCCCCO [1-Dodecanol] | 5.89 | 5.85 | 5.73 | 5.63 | 3.72 | 3.69 | 3.49 | 10 | 20.3
CCCCCCCCCCCCCCCCO [1-Hexadecanol] | 5.89 | 5.83 | 5.86 | 5.79 | 5.68 | 5.79 | 5.64 | 200 | > 200
Oc1ccc2ccc3cccc4ccc1c2c34 [1-Hydroxypyrene] | 6 | 5.88 | 5.84 | 5.75 | 3.72 | 3.8 | 3.87 | 50 | 16
OCCC(F)(F)C(F)(F)C(F)(F)C(F)(F)C(F)(F)C(F)(F)F [1-Octanol, 3,3,4,4,5,5,6,6,7,7,8,8,8-tridecafluoro-] | 5.87 | 5.92 | 5.88 | 5.94 | 5.91 | 5.77 | 5.65 | 200 | > 200
CCCCCCCCCCCCCCCO [1-Pentadecanol] | 5.76 | 5.96 | 5.83 | 5.8 | 5.59 | 5.49 | 5.3 | 50 | > 200
CCCCCCCCCCCCCCO [1-Tetradecanol] | 5.94 | 5.92 | 5.87 | 5.61 | 3.67 | 3.57 | 3.42 | 10 | 19.7
CCCCCCCCCCCCCO [1-Tridecanol] | 5.9 | 5.76 | 5.58 | 5.34 | 3.57 | 3.5 | 3.54 | 5 | 15.4
CCCCCCCCCCCO [1-Undecanol] | 5.77 | 6.01 | 5.84 | 5.7 | 3.79 | 3.74 | 4.93 | 50 | 18.4
